Results on 4 compounds are retold here after article PMC12055641, “The Study of Antistaphylococcal Potential of Omiganan and Retro-Omiganan Under Flow Conditions” (Probiotics and Antimicrobial Proteins, 2024).

≈ marks a conversion by molar mass, not a printed value. Some results are limits rather than exact numbers.

In test [1] the test system is S. aureus clinical strain 030N. Also on record: method as in earlier work. The settings on record: clinical isolate 030N, nasal swab; cited from earlier work.
The test system of a further test is S. aureus ATCC 25923. As to the kind of experiment: microbe, parasite or virus in culture. From the text:
(§1) Clinical S. aureus strains were collected from patients with atopic dermatitis during their visits to the Outpatient Clinic and hospitalization in the Department of Dermatology, Venereology and Allergology at Medical University of Gdańsk (following the approval from the ethics committee, Approval Number NKBBN/242–477/2014). Reference strains of S. aureus ATCC 25923, S. aureus ATCC 33591, S. aureus ATCC 9144, and S. aureus ATCC 12598 were obtained from the American Type Culture Collection. All the strains were stored at − 80 °C in Roti®-Store cryo vials (Carl Roth GmbH, Karlsruhe, Germany) and before the tests were transferred into fresh Mueller–Hinton Medium (BioMaxima, Lublin, Poland) and incubated for 24 h at 37 °C. Subsequently, each bacterial inoculum was seeded on Mueller–Hinton agar plates (BioMaxima) and incubated again for 24 h. The cultures prepared in this way were used in further antimicrobial assays. Minimum inhibitory concentrations (MICs) were determined according to the Clinical and Laboratory Standards Institute recommendations. […] The experiments were conducted on 96-well microtiter plates, with a final volume of 100 μL. Additionally, in the case of daptomycin, the medium was supplemented with Ca^2+ (50 mg/L). Cell densities were adjusted spectrophotometrically (Multiskan™ GO Microplate Spectrophotometer, Thermo Scientific) at 600 nm. The MICs were taken as the lowest drug concentration at which a visible growth of the microorganisms was inhibited. Minimum biofilm eliminating concentrations (MBECs) were determined on 96-well flat-bottomed microtiter polystyrene plates with resazurin (7-hydroxy-3H-phenoxazin-3-one 10-oxide sodium salt) as a cell viability reagent. To do this, the plates were filled with 100 μL of the initial inoculums of bacteria (0.5 × 10^7 CFU/mL) in the Mueller–Hinton broth and incubated for 24 h at 37 °C. […] After 24 h of incubation, 20 μL of resazurin (4 mg/mL) was added to each well and the MBEC values were read. Minimum biofilm inhibitory concentrations (MBICs) were also determined on 96-well flat-bottomed microtiter polystyrene plates as described previously. To do this, 50 μL of the compounds in the concentration range, diluted MHB, were prepared. Subsequently, the 50 μL of the staphylococcal inoculums were added to reach the same density of bacteria as that in the MBEC assay. After 24 h of incubation at 37 °C, the wells were rinsed three times with PBS and the fresh medium (100 μL) with resazurin (0.6 mg/mL) was added. Then, after 1 h of incubation, MBICs were read. […] All experiments were conducted in triplicate.
(§2) Formation of the biofilm inside the PDMS flow chambers was performed using three peristaltic pumps working simultaneously (LP-pump, Kamush, Lipopharm, Poland) and sterile Tygon® 3350 silicone hoses (2.4 × 0.8 × 0.8 mm) with a length of 30 and 50 cm for inlet and outlet, respectively. Bacterial suspensions were prepared (0.5 × 10^7 CFU/mL) in sterile 50-mL test tubes, which were placed in a heating block at 37 °C. Before experiments, all channels were assessed for tightness and sterilized using a 70% 2-propanol solution (10 min, flow rate 1 mL/min) and rinsed with sterile PBS solution (10 min, flow 0.1 mL/min). The formation of biofilm inside the channels was divided into three stages: (1) adhesion—at this stage S. aureus suspensions were passed through the channels for 4 h at a flow rate of 0.1 mL/min; (2) rinsing—the previously used hoses were replaced with new sterile ones, and the channels were rinsed with sterile PBS solution for 10 min at a flow rate of 0.1 mL/min; (3) biofilm growth—after flushing the channels, the silicone hoses were placed in tubes with MHB medium, which was passed through the channels for 24 h at a flow rate of 0.1 mL/min. All experiments included growth and sterility controls.
(§3) This assay was conducted also on the S. aureus ATCC 25923 and S. aureus 33,591 (MRSA) strains.

Test [2] has as its system S. aureus ATCC 33591 (MRSA). The test can be described thus: microbe, parasite or virus in culture.
Excerpt: as §1, §2, §3

For test [3], the system named is S. aureus clinical strain 004N (MRSA). Also noted: method as in earlier work. The settings on record: clinical isolate 004N (MRSA), nasal swab; cited from earlier work.
Test [4] concerns S. aureus clinical strain 009S. Also on record: method as in earlier work. Particulars: clinical isolate 009S, skin; cited from earlier work.
Test [5] relates to S. aureus clinical strain 031S. Also on record: method as in earlier work. Particulars: clinical isolate 031S, skin; cited from earlier work.
For test [6], the system named is S. aureus clinical strain 060S. Also noted: method as in earlier work. The settings on record: clinical isolate 060S, skin; cited from earlier work.
For test [7], the system named is S. aureus clinical strain 015N (MRSA). Also noted: method as in earlier work. The settings on record: clinical isolate 015N (MRSA), nasal swab; cited from earlier work.
The subject of test [8] is S. aureus clinical strain 051N (MRSA). Also noted: method as in earlier work. Particulars: clinical isolate 051N (MRSA), nasal swab; cited from earlier work.
Test [9] has as its system S. aureus clinical strain 043SC (MRSA). Also noted: method as in earlier work. Particulars: clinical isolate 043SC (MRSA), skin of patient with furuncle folliculitis; cited from earlier work.
Test [10] deals with S. aureus clinical strain 005S. Also on record: method as in earlier work. The settings on record: clinical isolate 005S, skin; cited from earlier work.
Setting [11] is: S. aureus 25923 biofilm treated under flow with Retro-Omiganan (half MBEC) for 24 h.
Where [12] appears, read: S. aureus 25923 biofilm treated under flow with Retro-Omiganan (half MBEC) for 48 h.
The mark [13] stands for this setting: S. aureus 25923 biofilm treated under flow with Retro-Omiganan (half MBEC) for 72 h.
Where [14] appears, read: Staphylococcus aureus, ATCC25923, 0 h.
Where [15] appears, read: Staphylococcus aureus, ATCC25923, 24 h.
Where [16] appears, read: Staphylococcus aureus, ATCC25923, 48 h.
[17] abbreviates: Staphylococcus aureus, ATCC25923, 72 h.
Setting [18] is: S. aureus ATCC 33591 (MRSA) biofilm treated under flow with Retro-Omiganan (half MBEC) for 24 h.
Setting [19] is: S. aureus ATCC 33591 (MRSA) biofilm treated under flow with Retro-Omiganan (half MBEC) for 48 h.
Where [20] appears, read: S. aureus ATCC 33591 (MRSA) biofilm treated under flow with Retro-Omiganan (half MBEC) for 72 h.

In the case of `CC(=O)NC[C@H]1CN(c2ccc(N3CCOCC3)c(F)c2)C(=O)O1` [Linezolid], the “Antimicrobial susceptibility (MIC)” value in [1] is given as 0.5 µg/mL; in test [3] it was 1 µg/mL; in test [4], 0.25 µg/mL; in test [5], 2 µg/mL; in [6], 1 µg/mL; in test [7], 2 µg/mL. Also, the “Antimicrobial susceptibility (MIC)” value is given as 2 µg/mL in [8], 2 µg/mL in test [9] and 0.5 µg/mL in test [10]. Further, the MIC with S. aureus ATCC 25923 (setting [11]) came to 1.0 µg/mL (≈ 2.96 µM); in the test on S. aureus ATCC 25923 (setting [12]) it was 1.0 µg/mL (≈ 2.96 µM); against S. aureus ATCC 25923 (setting [13]), 1.0 µg/mL (≈ 2.96 µM); against S. aureus ATCC 25923 (setting [14]) it was 1 µg/mL (≈ 2.96 µM); with S. aureus ATCC 25923 (setting [15]) it was 1 µg/mL (≈ 2.96 µM); in the test on S. aureus ATCC 25923 (setting [16]), 1 µg/mL (≈ 2.96 µM). In addition, the MIC with S. aureus ATCC 25923 (setting [17]) came to 1 µg/mL (≈ 2.96 µM); in [2] (setting [18]), 1.0 µg/mL (≈ 2.96 µM); in [2] (setting [19]), 1.0 µg/mL (≈ 2.96 µM); in test [2] (setting [20]) it was 1.0 µg/mL (≈ 2.96 µM); in test [2] (Staphylococcus aureus, 0 h), 1 µg/mL (≈ 2.96 µM); in test [2] (Staphylococcus aureus, 24 h) it was 1 µg/mL (≈ 2.96 µM). In addition, the MIC in test [2] (Staphylococcus aureus, 48 h) turned out to be 1 µg/mL (≈ 2.96 µM); in test [2] (Staphylococcus aureus, 72 h) it was 1 µg/mL (≈ 2.96 µM).

As to `CN(C)[C@@H]1C(O)=C(C(N)=O)C(=O)[C@@]2(O)C(O)=C3C(=O)c4c(O)cccc4[C@@](C)(O)[C@H]3C[C@@H]12` [Tetracycline], the “Antimicrobial susceptibility (MIC)” value in [1] is on record as 0.5 µg/mL; in [3] it was 0.5 µg/mL; in test [4], 1 µg/mL; in [5], 0.25 µg/mL; in test [6] it was 0.125 µg/mL; in test [7] it was 0.5 µg/mL. Also, the “Antimicrobial susceptibility (MIC)” value in [8] is listed as 0.25 µg/mL; in test [9], 32 µg/mL; in test [10], 0.5 µg/mL. Besides, the MIC in the test on S. aureus ATCC 25923 (Staphylococcus aureus, ATCC25923, 0 h, S. aureus 25923, time 0 h (baseline, before peptide exposure)) is at most 0.25 µg/mL; against S. aureus ATCC 25923 (Staphylococcus aureus, ATCC25923, 24 h, S. aureus 25923 biofilm treated under flow with Omiganan (half MBEC) for 24 h) it was at most 0.25 µg/mL; in the test on S. aureus ATCC 25923 (Staphylococcus aureus, ATCC25923, 24 h, S. aureus 25923 biofilm treated under flow with Retro-Omiganan (half MBEC) for 24 h), at most 0.25 µg/mL; in the test with S. aureus ATCC 25923 (Staphylococcus aureus, ATCC25923, 48 h, S. aureus 25923 biofilm treated under flow with Omiganan (half MBEC) for 48 h), at most 0.25 µg/mL; against S. aureus ATCC 25923 (Staphylococcus aureus, ATCC25923, 48 h, S. aureus 25923 biofilm treated under flow with Retro-Omiganan (half MBEC) for 48 h), at most 0.25 µg/mL; against S. aureus ATCC 25923 (Staphylococcus aureus, ATCC25923, 72 h, S. aureus 25923 biofilm treated under flow with Omiganan (half MBEC) for 72 h), at most 0.25 µg/mL. In addition, the MIC was at most 0.25 µg/mL in the test on S. aureus ATCC 25923 (Staphylococcus aureus, ATCC25923, 72 h, S. aureus 25923 biofilm treated under flow with Retro-Omiganan (half MBEC) for 72 h); 64 µg/mL (≈ 144 µM) in [2] (Staphylococcus aureus, ATCC33591|MRSA, 0 h, S. aureus ATCC 33591 (MRSA), time 0 h (baseline, before peptide exposure)); 64 µg/mL (≈ 144 µM) in test [2] (Staphylococcus aureus, ATCC33591|MRSA, 24 h, S. aureus ATCC 33591 (MRSA) biofilm treated under flow with Omiganan (half MBEC) for 24 h); 64 µg/mL (≈ 144 µM) in test [2] (Staphylococcus aureus, ATCC33591|MRSA, 24 h, S. aureus ATCC 33591 (MRSA) biofilm treated under flow with Retro-Omiganan (half MBEC) for 24 h); 64 µg/mL (≈ 144 µM) in [2] (Staphylococcus aureus, ATCC33591|MRSA, 48 h, S. aureus ATCC 33591 (MRSA) biofilm treated under flow with Omiganan (half MBEC) for 48 h); 64 µg/mL (≈ 144 µM) in test [2] (Staphylococcus aureus, ATCC33591|MRSA, 48 h, S. aureus ATCC 33591 (MRSA) biofilm treated under flow with Retro-Omiganan (half MBEC) for 48 h). The MIC in test [2] (Staphylococcus aureus, ATCC33591|MRSA, 72 h, S. aureus ATCC 33591 (MRSA) biofilm treated under flow with Omiganan (half MBEC) for 72 h) turned out to be 64 µg/mL (≈ 144 µM); in [2] (Staphylococcus aureus, ATCC33591|MRSA, 72 h, S. aureus ATCC 33591 (MRSA) biofilm treated under flow with Retro-Omiganan (half MBEC) for 72 h) it was 64 µg/mL (≈ 144 µM).

As for `CC[C@H]1OC(=O)[C@H](C)[C@@H](O[C@H]2C[C@@](C)(OC)[C@@H](O)[C@H](C)O2)[C@H](C)[C@@H](O[C@@H]2O[C@H](C)C[C@H](N(C)C)[C@H]2O)[C@](C)(O)C[C@@H](C)C(=O)[C@H](C)[C@@H](O)[C@]1(C)O` [Erythromycin], the “Antimicrobial susceptibility (MIC)” value in test [1] was 0.25 µg/mL; in test [7], 32 µg/mL; in [9] it was above 512 µg/mL. Also, the MIC against S. aureus ATCC 25923 (setting [11]), in the test with S. aureus ATCC 25923 (setting [12]), against S. aureus ATCC 25923 (setting [13]), with S. aureus ATCC 25923 (setting [14]), in the test on S. aureus ATCC 25923 (setting [15]) and in the test on S. aureus ATCC 25923 (setting [16]) was at most 0.25 µg/mL throughout. In the test with S. aureus ATCC 25923 (setting [17]), this compound had an MIC of at most 0.25 µg/mL.

For `CC1(C)S[C@@H]2[C@H](NC(=O)[C@H](N)c3ccccc3)C(=O)N2[C@H]1C(=O)O` [Ampicillin], the “Antimicrobial susceptibility (MIC)” value is on record as 0.5 µg/mL in test [1]; 0.5 µg/mL in [3]; 0.5 µg/mL in test [5]; 0.25 µg/mL in test [6]; 16 µg/mL in test [7]; 0.25 µg/mL in test [8]. Further, the “Antimicrobial susceptibility (MIC)” value was 32 µg/mL in [9] and 8 µg/mL in test [10]. Further, the MIC with S. aureus ATCC 25923 (setting [11]), in the test on S. aureus ATCC 25923 (setting [12]), in the test on S. aureus ATCC 25923 (setting [13]), against S. aureus ATCC 25923 (setting [14]), against S. aureus ATCC 25923 (setting [15]) and against S. aureus ATCC 25923 (setting [16]) was 0.5 µg/mL (≈ 1.43 µM) each time. For the same compound, the MIC against S. aureus ATCC 25923 (setting [17]) is 0.5 µg/mL (≈ 1.43 µM); in test [2] (setting [18]), above 128 µg/mL; in test [2] (setting [19]), above 128 µg/mL; in test [2] (setting [20]) it was above 128 µg/mL; in test [2] (Staphylococcus aureus, 0 h), above 128 µg/mL; in test [2] (Staphylococcus aureus, 24 h) it was above 128 µg/mL. The MIC in test [2] (Staphylococcus aureus, 48 h) is above 128 µg/mL; in [2] (Staphylococcus aureus, 72 h) it was above 128 µg/mL.
